Measurements taken from ChEMBL document CHEMBL3875174, “Further investigation of Paprotrain: Towards the conception of selective and multi-targeted CNS kinase inhibitors” (Eur J Med Chem, 2016).

Columns and labels:
[1] = molecular target: Dual specificity protein kinase CLK1 (Homo sapiens, UniProt P49759); assay: Inhibition of GST-tagged human recombinant CLK1 expressed in Escherichia coli using RS peptide as substrate incubated for 30 mins in presence of [gamma-33 P] ATP by liquid scintillation counting analysis
Sequence of Dual specificity protein kinase CLK1 (P49759 whole entry): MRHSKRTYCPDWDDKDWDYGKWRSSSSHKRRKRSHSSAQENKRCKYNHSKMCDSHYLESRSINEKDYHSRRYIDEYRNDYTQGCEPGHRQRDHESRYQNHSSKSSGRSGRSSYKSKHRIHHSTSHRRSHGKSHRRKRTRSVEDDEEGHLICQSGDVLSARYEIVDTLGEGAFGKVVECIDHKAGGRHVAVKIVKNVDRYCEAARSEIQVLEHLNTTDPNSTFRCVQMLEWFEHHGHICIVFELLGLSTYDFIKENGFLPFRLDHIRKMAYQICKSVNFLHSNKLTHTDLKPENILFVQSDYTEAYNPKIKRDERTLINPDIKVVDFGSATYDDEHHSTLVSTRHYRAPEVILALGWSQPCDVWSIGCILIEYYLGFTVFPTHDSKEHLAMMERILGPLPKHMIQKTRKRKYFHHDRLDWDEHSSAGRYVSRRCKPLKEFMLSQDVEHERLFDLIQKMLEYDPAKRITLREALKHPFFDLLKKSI

[2] = molecular target: Dual specificity tyrosine-phosphorylation-regulated kinase 1A (Homo sapiens, UniProt Q13627); assay: Inhibition of GST-tagged human recombinant DYRK1A expressed in Escherichia coli using RS peptide as substrate incubated for 30 mins in presence of [gamma-33 P] ATP by liquid scintillation counting analysis
[3] = molecular target: Cyclin-dependent kinase 5/CDK5 activator 1 (Homo sapiens, UniProt Q00535); type: protein-complex assay
Sequence of Cyclin-dependent kinase 5/CDK5 activator 1 (Q00535 whole entry): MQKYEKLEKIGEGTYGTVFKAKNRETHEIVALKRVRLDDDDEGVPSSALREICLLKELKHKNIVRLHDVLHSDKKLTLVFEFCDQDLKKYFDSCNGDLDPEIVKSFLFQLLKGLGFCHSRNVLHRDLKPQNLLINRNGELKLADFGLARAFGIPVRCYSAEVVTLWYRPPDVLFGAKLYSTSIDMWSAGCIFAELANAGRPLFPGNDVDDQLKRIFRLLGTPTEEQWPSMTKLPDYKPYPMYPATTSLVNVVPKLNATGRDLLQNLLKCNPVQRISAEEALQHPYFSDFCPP
Sequence of Cyclin-dependent kinase 5/CDK5 activator 1 (Q15078 whole entry, further chain): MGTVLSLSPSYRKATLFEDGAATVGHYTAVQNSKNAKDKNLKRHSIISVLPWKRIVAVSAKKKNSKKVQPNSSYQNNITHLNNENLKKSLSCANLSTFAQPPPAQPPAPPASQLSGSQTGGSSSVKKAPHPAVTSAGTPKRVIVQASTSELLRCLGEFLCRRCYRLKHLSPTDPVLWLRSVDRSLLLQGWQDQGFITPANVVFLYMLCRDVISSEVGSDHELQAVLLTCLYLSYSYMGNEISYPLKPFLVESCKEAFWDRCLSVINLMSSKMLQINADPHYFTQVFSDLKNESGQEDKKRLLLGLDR

[4] = molecular target: Glycogen synthase kinase-3 (Sus scrofa, UniProt B2LUN4+I6LNT8); assay: Inhibition of porcine brain GSK3alpha/beta using GS-1 as substrate incubated for 30 mins in presence of [gamma-33 P] ATP by liquid scintillation counting analysis
[5] = Inhibition of porcine brain CK1 delta/epsilon using RRKHAAIGpSAYSITA as substrate incubated for 30 mins in presence of [gamma-33 P] ATP by liquid scintillation counting analysis; design: species or system Sus scrofa
[6] = Cytotoxicity against human KB cells assessed as growth inhibition at 1 uM after 72 hrs by MTS assay; type: toxicity, cell-based; conditions: for growth inhibition (GI): kb, 72 h, 1 µM; for inhibition at 72 h, 1 µM: KB cells, read-out: GI
[7] = molecular target: Dual specificity protein kinase CLK4 (Homo sapiens, UniProt Q9HAZ1); assay: Inhibition of GST-tagged human recombinant CLK4 expressed in Escherichia coli using RS peptide as substrate incubated for 30 mins in presence of [gamma-33 P] ATP by liquid scintillation counting analysis
Sequence of Dual specificity protein kinase CLK4 (Q9HAZ1 whole entry): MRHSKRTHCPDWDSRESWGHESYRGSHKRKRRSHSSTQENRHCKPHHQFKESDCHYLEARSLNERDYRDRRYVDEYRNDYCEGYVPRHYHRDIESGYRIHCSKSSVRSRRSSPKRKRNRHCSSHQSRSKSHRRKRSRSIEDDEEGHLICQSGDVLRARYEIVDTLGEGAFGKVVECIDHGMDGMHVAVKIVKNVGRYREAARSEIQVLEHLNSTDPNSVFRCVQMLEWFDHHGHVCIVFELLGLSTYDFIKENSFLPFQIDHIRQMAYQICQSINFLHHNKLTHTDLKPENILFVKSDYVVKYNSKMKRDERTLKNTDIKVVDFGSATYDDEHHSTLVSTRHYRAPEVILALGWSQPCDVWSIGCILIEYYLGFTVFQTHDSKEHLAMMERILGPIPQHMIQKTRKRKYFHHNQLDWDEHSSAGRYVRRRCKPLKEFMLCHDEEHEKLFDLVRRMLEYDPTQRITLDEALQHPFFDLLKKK

[8] = molecular target: Dual specificity protein kinase CLK3 (Homo sapiens, UniProt P49761); assay: Inhibition of GST-tagged human recombinant CLK3 expressed in Escherichia coli using RS peptide as substrate incubated for 30 mins in presence of [gamma-33 P] ATP by liquid scintillation counting analysis
Sequence of Dual specificity protein kinase CLK3 (P49761 whole entry): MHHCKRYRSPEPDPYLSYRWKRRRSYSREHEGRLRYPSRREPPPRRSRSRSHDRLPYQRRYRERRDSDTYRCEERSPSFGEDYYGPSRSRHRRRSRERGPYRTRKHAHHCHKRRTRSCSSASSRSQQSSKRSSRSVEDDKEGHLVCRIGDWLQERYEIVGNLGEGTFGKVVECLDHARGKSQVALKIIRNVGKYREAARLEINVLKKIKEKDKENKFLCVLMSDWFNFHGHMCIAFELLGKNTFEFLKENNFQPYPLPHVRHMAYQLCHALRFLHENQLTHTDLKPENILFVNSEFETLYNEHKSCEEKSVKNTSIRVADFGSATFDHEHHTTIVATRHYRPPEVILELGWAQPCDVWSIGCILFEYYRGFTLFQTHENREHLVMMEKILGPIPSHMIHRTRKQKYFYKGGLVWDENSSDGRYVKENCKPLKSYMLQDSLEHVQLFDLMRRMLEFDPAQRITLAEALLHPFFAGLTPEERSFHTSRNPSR

[9] = molecular target: Dual specificity tyrosine-phosphorylation-regulated kinase 1B (Homo sapiens, UniProt Q9Y463); assay: Inhibition of GST-tagged human recombinant DYRK1B expressed in Escherichia coli using RS peptide as substrate incubated for 30 mins in presence of [gamma-33 P] ATP by liquid scintillation counting analysis
Sequence of Dual specificity tyrosine-phosphorylation-regulated kinase 1B (Q9Y463 whole entry): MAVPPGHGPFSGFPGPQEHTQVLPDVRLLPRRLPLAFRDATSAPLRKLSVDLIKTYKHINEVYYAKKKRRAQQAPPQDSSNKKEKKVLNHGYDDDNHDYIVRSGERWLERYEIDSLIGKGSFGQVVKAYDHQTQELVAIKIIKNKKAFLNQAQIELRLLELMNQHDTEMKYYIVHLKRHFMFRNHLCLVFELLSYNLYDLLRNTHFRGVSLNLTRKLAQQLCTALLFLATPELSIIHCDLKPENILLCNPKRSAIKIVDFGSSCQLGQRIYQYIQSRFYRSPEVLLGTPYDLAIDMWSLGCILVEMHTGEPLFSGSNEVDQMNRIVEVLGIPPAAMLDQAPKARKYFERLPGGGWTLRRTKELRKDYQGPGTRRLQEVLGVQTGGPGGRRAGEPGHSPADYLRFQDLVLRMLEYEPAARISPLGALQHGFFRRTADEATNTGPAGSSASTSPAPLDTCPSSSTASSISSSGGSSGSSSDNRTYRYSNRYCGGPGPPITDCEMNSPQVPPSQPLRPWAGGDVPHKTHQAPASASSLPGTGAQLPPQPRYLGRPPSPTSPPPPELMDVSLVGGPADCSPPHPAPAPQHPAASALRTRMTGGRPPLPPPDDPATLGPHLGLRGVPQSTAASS

[10] = molecular target: Dual specificity protein kinase CLK2 (Homo sapiens, UniProt P49760); assay: Inhibition of GST-tagged human recombinant CLK2 expressed in Escherichia coli using RS peptide as substrate incubated for 30 mins in presence of [gamma-33 P] ATP by liquid scintillation counting analysis
Sequence of Dual specificity protein kinase CLK2 (P49760 whole entry): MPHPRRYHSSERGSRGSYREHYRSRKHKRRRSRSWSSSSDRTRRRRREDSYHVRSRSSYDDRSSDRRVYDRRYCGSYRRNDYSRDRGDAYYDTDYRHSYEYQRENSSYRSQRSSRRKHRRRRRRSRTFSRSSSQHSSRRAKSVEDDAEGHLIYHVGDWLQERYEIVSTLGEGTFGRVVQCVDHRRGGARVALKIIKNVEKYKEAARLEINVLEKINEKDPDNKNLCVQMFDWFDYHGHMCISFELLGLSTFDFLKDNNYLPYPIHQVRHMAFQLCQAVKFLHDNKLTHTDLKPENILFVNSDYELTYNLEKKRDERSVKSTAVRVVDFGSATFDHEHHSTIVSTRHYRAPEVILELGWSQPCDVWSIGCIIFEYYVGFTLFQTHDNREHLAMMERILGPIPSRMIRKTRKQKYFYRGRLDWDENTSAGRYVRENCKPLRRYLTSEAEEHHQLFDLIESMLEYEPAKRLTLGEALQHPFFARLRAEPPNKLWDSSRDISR

Row | Structure (SMILES) | IC50 [1] | IC50 [2] | IC50 [3] | IC50 [4] | IC50 [5] | IC50 [7] | IC50 [8] | IC50 [9] | IC50 [10] | growth inhibition (GI) [6] | inhibition at 72 h, 1 µM [6]
1 | N#C/C(=C\c1cccnc1)c1c[nH]c2ccccc12 |  | 5500 nM | > 10000 nM | > 10000 nM |  |  |  |  |  |  | 
2 | COc1ccc2c(/C(C#N)=C/c3cccnc3)c[nH]c2c1 | 1300 nM | 1600 nM | > 10000 nM | > 10000 nM | > 10000 nM |  |  |  |  |  | 
3 | COc1ccc2[nH]cc(/C(C#N)=C/c3cccnc3)c2c1 |  | 6300 nM | > 10000 nM | > 10000 nM |  |  |  |  |  |  | 
4 | N#Cc1cc2cnccc2c2[nH]c3ccc(F)cc3c12 | 230 nM | 310 nM | > 10000 nM | > 10000 nM | > 10000 nM | 200 nM | > 10000 nM | 300 nM | 610 nM | Non-Toxic | 
5 | N#Cc1cc2cnccc2c2[nH]c3ccc(Cl)cc3c12 | > 10000 nM | 4000 nM | > 10000 nM | > 10000 nM | > 10000 nM |  |  |  |  |  | 
6 | COc1cncc(/C=C(\C#N)c2c[nH]c3ccc(OC)cc23)c1 | 2300 nM | > 10000 nM | > 10000 nM | > 10000 nM | > 10000 nM |  |  |  |  |  | 
7 | N#Cc1cc2cnccc2c2[nH]c3ncccc3c12 | 160 nM | 440 nM | 780 nM | 1800 nM | > 10000 nM | 130 nM | 6800 nM | 160 nM | 400 nM | Non-Toxic | 
8 | N#C/C(=C\c1ccccc1)c1c[nH]c2ccccc12 |  | > 10000 nM | > 10000 nM | > 10000 nM |  |  |  |  |  |  | 
9 | COc1cccc2c1[nH]c1c3ccncc3cc(C(N)=O)c21 | 570 nM | 600 nM | 9000 nM | 8800 nM | > 10000 nM | 110 nM | 6100 nM | 460 nM | 3500 nM | Non-Toxic | 
10 | COc1ccc2c(c1)[nH]c1c3ccncc3cc(CN(C)C)c21 | 1400 nM | 670 nM | 5400 nM | > 10000 nM | > 10000 nM |  |  |  |  |  | 37%
11 | COc1ccc2[nH]c3c4c(OC)cncc4cc(C#N)c3c2c1 | 56 nM | 600 nM | 930 nM | 4000 nM | > 10000 nM |  |  |  |  | Non-Toxic | 
12 | COc1ccc2[nH]cc3c2c1C(C)NC(c1cccnc1)=C3C#N (centres undefined) | > 10000 nM | 5000 nM | 6400 nM | > 10000 nM | > 10000 nM |  |  |  |  |  | 
13 | COc1ccc2[nH]c3c(=O)[nH]c(-c4cccnc4)c(C#N)c3c2c1 | 47 nM | 4300 nM | > 10000 nM | > 10000 nM | > 10000 nM | 21 nM | > 10000 nM | 1100 nM | 610 nM | Non-Toxic | 
14 | N#C/C(=C\c1ccncc1)c1c[nH]c2ccccc12 |  | > 10000 nM | > 10000 nM | > 10000 nM |  |  |  |  |  |  | 
15 | N#Cc1cc2cccnc2c2[nH]c3ccccc3c12 |  | > 10000 nM | > 10000 nM | > 10000 nM |  |  |  |  |  |  | 
16 | COc1cccc2c1[nH]c1c3ccncc3cc(C#N)c21 | 41 nM | 27 nM | 460 nM | 2000 nM | > 10000 nM | 40 nM | 180 nM | 28 nM | 44 nM |  | 9%
17 | N#Cc1cc2ccccn2c2nc3ccccc3c1-2 | > 10000 nM | > 10000 nM | > 10000 nM | > 10000 nM | > 10000 nM |  |  |  |  |  | 
18 | COc1ccc2c(c1)[nH]c1c(C)nccc12 [HARMINE] |  |  |  | > 10000 nM | 1500 nM |  |  |  |  |  | 

Continued, in another order:

Row | IC50 [1] | IC50 [2] | IC50 [3] | IC50 [4] | IC50 [5] | IC50 [7] | IC50 [8] | IC50 [9] | IC50 [10] | Structure (SMILES) | growth inhibition (GI) [6] | inhibition at 72 h, 1 µM [6]
19 | 1500 nM | 1200 nM | > 10000 nM | > 10000 nM | > 10000 nM |  |  |  |  | COc1cccc2c(/C(C#N)=C/c3cccnc3)c[nH]c12 |  | 
20 | 3000 nM | 6000 nM | > 10000 nM | > 10000 nM | > 10000 nM |  |  |  |  | COc1cccc2[nH]cc(/C(C#N)=C/c3cccnc3)c12 |  | 
21 | > 10000 nM | > 10000 nM | > 10000 nM | > 10000 nM |  |  |  |  |  | N#C/C(=C/c1cccnc1)c1c[nH]c2ccccc12 |  | 
22 | 1400 nM | 2300 nM | > 10000 nM | > 10000 nM | > 10000 nM |  |  |  |  | N#Cc1cc2ccccc2c2[nH]c3ccccc3c12 |  | 
23 | > 10000 nM | 10000 nM | > 10000 nM | > 10000 nM | > 10000 nM |  |  |  |  | N#Cc1cc2ncccc2c2[nH]c3ccccc3c12 |  | 
24 | 51 nM | 370 nM | 800 nM | 1700 nM | > 10000 nM | 57 nM | 710 nM | 220 nM | 110 nM | COc1ccc2[nH]c3c4ccncc4cc(C#N)c3c2c1 | Non-Toxic | 
25 | 23 nM | 25 nM | 440 nM | 680 nM | > 10000 nM | 33 nM | 190 nM | 34 nM | 80 nM | COc1ccc2c(c1)[nH]c1c3ccncc3cc(C#N)c21 |  | 64%
26 |  | 50 nM | 800 nM | 1000 nM |  |  |  |  |  | N#Cc1cc2cnccc2c2[nH]c3ccccc3c12 |  | 
27 | 2900 nM | > 10000 nM | > 10000 nM | > 10000 nM | > 10000 nM |  |  |  |  | COc1ccc2cc(-c3ccncc3)[nH]c2n1 |  | 
28 | 1100 nM | 7300 nM | > 10000 nM | > 10000 nM | > 10000 nM |  |  |  |  | COc1ccc2c(CC#N)c(-c3ccncc3)[nH]c2n1 |  | 
29 | 1700 nM | 1800 nM | > 10000 nM | > 10000 nM | > 10000 nM |  |  |  |  | N#C/C(=C\c1cccnc1)c1c[nH]c2ccc(F)cc12 |  | 
30 | 2100 nM | > 10000 nM | > 10000 nM | > 10000 nM | > 10000 nM |  |  |  |  | Nc1nc2ccccc2c2cc3cnccc3cc12 |  | 
31 |  | > 10000 nM | > 10000 nM | > 10000 nM |  |  |  |  |  | N#C/C(=C\c1ccccn1)c1c[nH]c2ccccc12 |  | 
32 | 1600 nM | 3300 nM | 1600 nM | > 10000 nM | > 10000 nM |  |  |  |  | COc1ccc2c(c1)[nH]c1c3c(OC)cncc3cc(C(N)=O)c21 |  | 
33 | > 10000 nM | > 10000 nM | > 10000 nM | > 10000 nM | > 10000 nM |  |  |  |  | COc1ccc2[nH]cc(/C(C#N)=C(\N)c3cccnc3)c2c1 |  | 
34 | 23 nM | 18 nM | 6400 nM | 140 nM | > 10000 nM | 30 nM | 320 nM | 42 nM | 150 nM | COc1ccc2c(c1)[nH]c1c3c(OC)cncc3cc(C#N)c21 |  | 38%
35 | 1600 nM | 2000 nM | 4500 nM | 9000 nM | > 10000 nM |  |  |  |  | COc1ccc2c(c1)[nH]c1c3ccncc3cc(C(N)=O)c21 |  | 
36 | 2000 nM | 3300 nM | > 10000 nM | > 10000 nM | > 10000 nM |  |  |  |  | N#C/C(=C\c1cccnc1)c1c[nH]c2ccc(Cl)cc12 |  | 
37 | 86 nM | 200 nM | > 10000 nM | > 10000 nM | > 10000 nM | 47 nM | > 10000 nM | 93 nM | 4600 nM | COc1ccc2c(n1)[nH]c1c3ccncc3cc(C#N)c21 | Non-Toxic | 
38 | 830 nM | 870 nM | 5600 nM | > 10000 nM | > 10000 nM | 270 nM | 7000 nM | 910 nM | 1600 nM | COc1ccc2c(c1)[nH]c1c3ccncc3cc(CN)c21 |  | 85%
39 | 4000 nM | 5500 nM | > 10000 nM | > 10000 nM | > 10000 nM |  |  |  |  | COc1ccc2[nH]cc(/C(C#N)=C/c3cnccc3C)c2c1 |  | 
40 | 34 nM | 850 nM | 8000 nM | > 10000 nM | > 10000 nM | 22 nM | 7000 nM | 590 nM | 1100 nM | COc1ccc2[nH]cc(-c3cc4cnccc4cc3NC(C)=O)c2c1 | Non-Toxic | 
41 | 2400 nM | 970 nM | 6000 nM | > 10000 nM | > 10000 nM | 690 nM | 8000 nM | 900 nM | 2800 nM | COc1ccc2c(c1)[nH]c1c3ccncc3cc(CNC(C)=O)c21 |  | 16%
